Structures are written as SMILES.

This assay deals with T1, 5-hydroxytryptamine receptor 2C (Homo sapiens, UniProt P28335).
T1 sequence (P28335 whole entry): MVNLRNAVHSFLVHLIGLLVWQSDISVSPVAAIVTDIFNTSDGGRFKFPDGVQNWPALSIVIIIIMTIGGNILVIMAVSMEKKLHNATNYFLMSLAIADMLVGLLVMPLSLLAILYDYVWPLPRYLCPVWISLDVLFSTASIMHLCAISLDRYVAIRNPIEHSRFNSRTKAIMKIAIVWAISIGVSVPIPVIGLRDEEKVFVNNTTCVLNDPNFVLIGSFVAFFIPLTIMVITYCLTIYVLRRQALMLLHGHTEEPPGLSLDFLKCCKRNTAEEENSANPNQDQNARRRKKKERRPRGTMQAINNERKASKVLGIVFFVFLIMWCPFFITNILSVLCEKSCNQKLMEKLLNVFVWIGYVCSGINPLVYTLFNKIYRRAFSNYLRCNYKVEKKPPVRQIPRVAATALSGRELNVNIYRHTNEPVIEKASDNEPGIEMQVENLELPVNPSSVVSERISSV
As to the kind of experiment: ChEBML_3050. The text has this:
Binding affinity towards 5-hydroxytryptamine 2C receptor by displacement of [3H]N-methyl-mesulergine
By IC50 is commonly meant the point on the concentration scale where inhibition reaches its midpoint. For the compound `CCCN(CCCCN1C(=O)CC2(CCCC2)CC1=O)CC1COc2cccc(OC)c2C1` (stereo not drawn), half-maximal inhibition (IC50) was put at 3.16 µM. Then `O=C1CC2(CCCC2)CC(=O)N1CCCCNCC1COc2ccccc2C1` (stereo not drawn), with 1.23 µM. In turn, `COc1cccc2c1CC(CNCCCCN1C(=O)CC3(CCCC3)CC1=O)CO2` (stereo not drawn) gave an IC50 of 0.169 µM. Consider `CCCN(CCC)CC1(N(CCC)CCC)COc2cccc(OC)c2C1` (stereo not drawn), for which half-maximal inhibition (IC50) required 30.2 µM. Take `CCCN1CCN(Cc2ccccc2)CC12COc1cccc(OC)c1C2` (stereo not drawn): it took 38.9 µM to reach half-maximal inhibition (IC50). `CCCN1CCN(CCC)C2(COc3cccc(OC)c3C2)C1` (stereo not drawn): the IC50 was 468 µM.

In turn, `CCCN1CCN(CCCCN2C(=O)CC3(CCCC3)CC2=O)CC12COc1cccc(OC)c1C2` (stereo not drawn) registered an IC50 of 30.9 µM. `COc1cccc2c1CC1(CCCN1CCCCN1C(=O)CC3(CCCC3)CC1=O)CO2` (racemic) [(+/-) 8-{4-[5-methoxyspiro[3,4-dihydro-2H-chromene-3,2'-(tetrahydro-1'H-pyrrole)]-1-yl]butyl}-8-azaspiro[4.5]decane-7,9-dione] came in with a concentration for half-maximal inhibition (IC50) of 10.5 µM.

Values taken from BindingDB's records for doi:10.1016/0960-894X(96)00174-6 (n/a, 1996).
